In the test the target is T1, F508del in NIH 3T3 cells (Homo sapiens, UniProt P13569, DEL508-508).
T1 construct: expressed in transfected cells
The experiment in a line: 3T3 assay: membrane potential optical assay for F508del correction. In kind it is cell-based. From the text:
1. Membrane Potential Optical Methods for Assaying F508del Modulation Properties of Compounds
The assay utilizes fluorescent voltage sensing dyes to measure changes in membrane potential using a fluorescent plate reader (e.g., FLTPR III, Molecular Devices, Inc.) as a readout for increase in functional F508del in NIH 3T3 cells. The driving force for the response is the creation of a chloride ion gradient in conjunction with channel activation by a single liquid addition step after the cells have previously been treated with compounds and subsequently loaded with a voltage sensing dye.
2. Identification of Corrector Compounds
To identify correctors of F508del, a single-addition HTS assay format was developed. This HTS assay utilizes fluorescent voltage sensing dyes to measure changes in membrane potential on the FLIPR III as a measurement for increase in gating (conductance) of F508del in F508del NUT 3T3 cells. The F508del NUT 3T3 cell cultures were incubated with the corrector compounds at a range of concentrations for 18-24 hours at 37° C., and subsequently loaded with a redistribution dye. The driving force for the response is a Cl^− ion gradient in conjunction with channel activation with forskolin in a single liquid addition step using a fluorescent plate reader such as FLIPR III.
Bath Solution #1: (in mM) NaCl 160, KCl 4.5, CaCl2 2, MgCl2 1, HEPES 10, pH 7.4 with NaOH.
Chloride-free bath solution: Chloride salts in Bath Solution #1 (above) are substituted with gluconate salts.
NIH3T3 mouse fibroblasts stably expressing F508del were used for optical measurements of membrane potential. The cells were maintained at 37° C. in 5% CO2 and 90% humidity in Dulbecco's modified Eagle's medium supplemented with 2 mM glutamine, 10% fetal bovine serum, 1×NEAA, b-ME, 1×pen/strep, and 25 mM HEPES in 175 cm^2 culture flasks. For all optical assays, the cells were seeded at ˜20,000/well in 384-well Matrigel-coated plates. For the correction assays, the cells were cultured at 37° C. with and without compounds for 16-24 hours.

Where [1] appears, read: NIH3T3, NIH 3T3 cells, F508del, read-out: 3T3 Max Activity (%).
[2] abbreviates: NIH 3T3 cells, F508del, read-out: 3T3 EC50.
The mark [3] stands for this setting: NIH3T3, read-out: 3T3 Max Activity (%).

pEC50: −log10 of the molar value. Like-named read-outs stand apart in the source and are kept apart here. Where only a bound is given, the exact number is not on record here.

T1 sequence (P13569 with tags, fused parts or gaps DEL508-508): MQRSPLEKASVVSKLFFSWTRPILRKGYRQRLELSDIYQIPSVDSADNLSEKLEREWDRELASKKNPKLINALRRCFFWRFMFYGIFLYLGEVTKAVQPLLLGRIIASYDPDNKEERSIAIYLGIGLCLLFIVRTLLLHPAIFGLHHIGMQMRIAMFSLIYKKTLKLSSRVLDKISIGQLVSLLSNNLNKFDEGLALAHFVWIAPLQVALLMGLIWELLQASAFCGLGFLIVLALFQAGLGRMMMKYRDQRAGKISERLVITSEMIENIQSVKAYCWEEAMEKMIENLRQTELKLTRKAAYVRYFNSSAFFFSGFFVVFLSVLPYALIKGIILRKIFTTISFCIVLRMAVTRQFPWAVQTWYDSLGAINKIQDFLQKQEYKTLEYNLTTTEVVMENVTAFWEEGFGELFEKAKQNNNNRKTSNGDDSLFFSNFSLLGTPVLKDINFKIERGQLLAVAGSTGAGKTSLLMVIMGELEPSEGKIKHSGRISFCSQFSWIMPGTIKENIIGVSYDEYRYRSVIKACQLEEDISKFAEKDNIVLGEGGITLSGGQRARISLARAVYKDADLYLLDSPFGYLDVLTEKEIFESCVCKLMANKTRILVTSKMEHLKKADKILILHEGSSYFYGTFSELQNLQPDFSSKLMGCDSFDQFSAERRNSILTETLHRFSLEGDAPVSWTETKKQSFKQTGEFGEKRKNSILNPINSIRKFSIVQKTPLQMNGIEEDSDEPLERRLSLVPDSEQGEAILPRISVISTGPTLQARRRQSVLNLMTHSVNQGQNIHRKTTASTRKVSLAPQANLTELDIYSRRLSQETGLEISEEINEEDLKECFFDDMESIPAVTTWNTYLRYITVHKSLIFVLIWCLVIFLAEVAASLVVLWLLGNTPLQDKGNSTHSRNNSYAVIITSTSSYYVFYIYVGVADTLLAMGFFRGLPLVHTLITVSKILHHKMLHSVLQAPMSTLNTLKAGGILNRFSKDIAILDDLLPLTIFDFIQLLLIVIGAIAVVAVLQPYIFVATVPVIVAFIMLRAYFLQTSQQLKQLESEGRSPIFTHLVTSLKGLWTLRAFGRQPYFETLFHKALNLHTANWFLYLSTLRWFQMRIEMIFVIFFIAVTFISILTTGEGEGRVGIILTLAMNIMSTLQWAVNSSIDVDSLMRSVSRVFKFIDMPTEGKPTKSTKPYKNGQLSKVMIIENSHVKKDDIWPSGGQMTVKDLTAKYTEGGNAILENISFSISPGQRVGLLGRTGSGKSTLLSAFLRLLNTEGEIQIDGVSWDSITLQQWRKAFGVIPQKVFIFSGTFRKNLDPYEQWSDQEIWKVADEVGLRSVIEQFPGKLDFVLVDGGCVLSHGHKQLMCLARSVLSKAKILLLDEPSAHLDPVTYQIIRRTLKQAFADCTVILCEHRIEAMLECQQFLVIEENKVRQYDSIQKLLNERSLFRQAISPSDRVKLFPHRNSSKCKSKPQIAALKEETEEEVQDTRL

As to `Cc1nc(NS(=O)(=O)c2ccccc2)sc1-c1csc(Nc2ccccn2)n1` [Compound 30, N-[4-methyl-5-[2-(2-pyridylamino)thiazol-4-yl]thiazol-2-yl]benzenesulfonamide], the Emax under setting [1] lay in the range of 30 to 60%. Under setting [2], the pEC50 (commonly the EC50 on a negative log10 scale, so that one unit is a factor of ten) is 5.52 to 6.00. `O=S(=O)(Nc1ncc(Cc2cnccn2)s1)c1ccccc1` [Compound 31, N-[5-(pyrazin-2-ylmethyl)thiazol-2-yl]benzenesulfonamide]: under setting [1], the Emax was < 30%. For `O=S(=O)(Nc1ncc(Cc2ccccc2)s1)c1ccccc1` [Compound 32, N-[5-benzyl-thiazol-2-yl]benzenesulfonamide], the Emax under setting [1] was in the range of 30 to 60%. In the case of `O=C(Nc1ccccc1)c1sc(NS(=O)(=O)c2ccccc2)nc1-c1ccccc1` [Compound 33, N,4-diphenyl-2-(phenylsulfonamido)thiazole-5-carboxamide], the Emax under setting [1] is < 30%.

Take `O=C(c1sc(NS(=O)(=O)c2ccccc2)nc1-c1ccccc1)N1CCCCC1` [Compound 34, N-[4-phenyl-5-(piperidine-1-carbonyl)thiazol-2-yl]benzenesulfonamide]: the Emax under setting [1] is < 30%. Still for that read-out and setting: next, `COCCNC(=O)c1sc(NS(=O)(=O)c2ccccc2)nc1-c1ccccc1` [Compound 35, 2-(benzenesulfonamido)-N-(2-methoxyethyl)-4-phenyl-thiazole-5-carboxamide]: < 30%; `CC(C)(C)NC(=O)c1sc(NS(=O)(=O)c2ccccc2)nc1-c1ccccc1` [Compound 36, 2-(benzenesulfonamido)-N-tert-butyl-4-phenyl-thiazole-5-carboxamide]: < 30%.

In the case of `O=C(NCCOCC1CC1)c1sc(NS(=O)(=O)c2ccccc2)nc1-c1ccccc1` [Compound 37, 2-(benzenesulfonamido)-N-[2-(cyclopropylmethoxy)ethyl]-4-phenyl-thiazole-5-carboxamide], the Emax under setting [1] was < 30%. Same read-out and setting: the same measure for `CCCN(C)C(=O)c1sc(NS(=O)(=O)c2ccccc2)nc1-c1ccccc1` [Compound 38, 2-(benzenesulfonamido)-N-methyl-4-phenyl-N-propyl-thiazole-5-carboxamide]: < 30%.

With `CCCNC(=O)c1sc(NS(=O)(=O)c2ccccc2)nc1-c1ccccc1` [Compound 39, 2-(benzenesulfonamido)-4-phenyl-N-propyl-thiazole-5-carboxamide], the Emax under setting [1] was < 30%. Regarding `COC(=O)Cc1nc(NS(=O)(=O)c2ccccc2)sc1-c1ccccc1` [Compound 40, methyl 2-[2-(benzenesulfonamido)-5-phenyl-thiazol-4-yl]acetate], the Emax under setting [1] was 30 to 60%. Under setting [2], the negative-log EC50 (pEC50) is 4.52 to 5.52.

As for `CCOC(=O)c1nc(NS(=O)(=O)c2ccccc2)sc1-c1ccccc1` [Compound 41, ethyl 2-(benzenesulfonamido)-5-phenyl-thiazole-4-carboxylate], the Emax under setting [1] lay in the range of 30 to 60%. Also, the pEC50 under setting [2] is 5.52 to 6.00. On to `O=C(O)c1sc(NS(=O)(=O)c2ccccc2)nc1-c1ccccc1` [Compound 42, 4-phenyl-2-(phenylsulfonamido)thiazole-5-carboxylic acid], for which the Emax under setting [1] was 30 to 60%.

As for `Cc1sc(NS(=O)(=O)c2ccccc2)nc1-c1ccncc1` [Compound 43, N-[5-methyl-4-(4-pyridyl)thiazol-2-yl]benzenesulfonamide], under setting [1], the Emax was < 30%.

In the case of `Cc1nc(NS(=O)(=O)c2ccccc2)sc1-c1csc(Nc2ncccn2)n1` [Compound 44, N-[4-methyl-5-[2-(pyrimidin-2-ylamino)thiazol-4-yl]thiazol-2-yl]benzenesulfonamide], under setting [1], the Emax was < 30%. Still for that read-out and setting: the same measure for `CC(C)(C)c1nc(NS(=O)(=O)c2ccccc2)sc1C#N` [Compound 45, N-(4-tert-butyl-5-cyano-thiazol-2-yl)benzenesulfonamide]: < 30%; for `Cc1nc(NS(=O)(=O)c2ccccc2)sc1C` [Compound 46, N-(4,5-dimethylthiazol-2-yl)benzenesulfonamide]: < 30%. On the same count and under the same terms, the same measure for `CCCc1nc(NS(=O)(=O)c2ccccc2)sc1C` [Compound 47, N-(5-methyl-4-propyl-thiazol-2-yl)benzenesulfonamide]: < 30%. In the case of `Cc1cccc(-c2cc(NS(=O)(=O)c3ccccc3)nn2-c2c(C)cc(C)cc2C)c1` [Compound 48, N-[5-(m-tolyl)-1-(2,4,6-trimethylphenyl)pyrazol-3-yl]benzenesulfonamide], under setting [3], the Emax was > 60%. Further, the negative logarithm of the EC50 (pEC50) under setting [2] is > 6.00.

Turning to `Cc1cc(C)c(-n2nc(NS(=O)(=O)c3ccccc3)cc2-c2ccc(Oc3ccccc3)cc2)c(C)c1` [Compound 49, N-[5-(4-phenoxyphenyl)-1-(2,4,6-trimethylphenyl)pyrazol-3-yl]benzenesulfonamide], the Emax under setting [3] lay within 30 to 60%. Under setting [2], the pEC50 is > 6.00. Consider `COc1cccc(-c2cc(NS(=O)(=O)c3ccccc3)nn2-c2c(C)cc(C)cc2C)c1` [Compound 50, N-[5-(3-methoxyphenyl)-1-(2,4,6-trimethylphenyl)pyrazol-3-yl]benzenesulfonamide], for which the pEC50 is 5.52 to 6.00. For the same molecule, the Emax under setting [3] was > 60%. `CC(C)=Cc1cc(NS(=O)(=O)c2ccccc2)nn1-c1c(C)cc(C)cc1C` [Compound 51, N-[5-(2-methylprop-1-enyl)-1-(2,4,6-trimethylphenyl)pyrazol-3-yl]benzenesulfonamide]: under setting [1], the Emax is > 60%. Further, the pEC50 under setting [2] was 5.52 to 6.00. For the molecule `Cc1cc(C)c(-n2nc(NS(=O)(=O)c3ccccc3)cc2CC(C)C)c(C)c1` [Compound 52, N-[5-isobutyl-1-(2,4,6-trimethylphenyl)pyrazol-3-yl]benzenesulfonamide], the Emax under setting [1] was > 60%. Besides, the pEC50 under setting [2] is 5.52 to 6.00. Consider `Cc1cc(C)c(-n2nc(NS(=O)(=O)c3ccccc3)cc2C(C)(C)C)c(C)c1` [Compound 53, N-[5-tert-butyl-1-(2,4,6-trimethylphenyl)pyrazol-3-yl]benzenesulfonamide], for which the Emax under setting [1] was < 30%.

As to `Cc1cc(C)c(-n2nc(NS(=O)(=O)c3ccccc3)cc2-c2cccc(Oc3ccccc3)c2)c(C)c1` [Compound 54, N-[5-(3-phenoxyphenyl)-1-(2,4,6-trimethylphenyl)pyrazol-3-yl]benzenesulfonamide], the Emax under setting [1] is 30 to 60%. For the same molecule, the pEC50 under setting [2] is > 6.00. For `Cc1cc(C)c(-n2nc(NS(=O)(=O)c3ccccc3)cc2-c2ccccc2Oc2ccccc2)c(C)c1` [Compound 55, N-[5-(2-phenoxyphenyl)-1-(2,4,6-trimethylphenyl)pyrazol-3-yl]benzenesulfonamide], the Emax under setting [1] was > 60%. Also, under setting [2], the pEC50 was > 6.00.

With `Cc1cc(C)c(-n2nc(NS(=O)(=O)c3ccccc3)cc2-c2ccc(Cl)cc2)c(C)c1` [Compound 56, N-[5-(4-chlorophenyl)-1-(2,4,6-trimethylphenyl)pyrazol-3-yl]benzenesulfonamide], the Emax under setting [1] is 30 to 60%. Also, the pEC50 under setting [2] was > 6.00. `Cc1cc(C)c(-n2nc(NS(=O)(=O)c3ccccc3)cc2-c2cccc(Cl)c2)c(C)c1` [Compound 57, N-[5-(3-chlorophenyl)-1-(2,4,6-trimethylphenyl)pyrazol-3-yl]benzenesulfonamide]: the Emax under setting [1] is > 60%. In addition, the pEC50 under setting [2] is > 6.00. In the same order, the values of `Cc1cc(C)c(-n2nc(NS(=O)(=O)c3ccccc3)cc2-c2ccccc2Cl)c(C)c1` [Compound 58, N-[5-(2-chlorophenyl)-1-(2,4,6-trimethylphenyl)pyrazol-3-yl]benzenesulfonamide] are > 60% and > 6.00.

Consider `COc1ccc(-c2cc(NS(=O)(=O)c3ccccc3)nn2-c2c(C)cc(C)cc2C)cc1` [Compound 59, N-[5-(4-methoxyphenyl)-1-(2,4,6-trimethylphenyl)pyrazol-3-yl]benzenesulfonamide], for which, under setting [1], the Emax was in the range of 30 to 60%. The pEC50 under setting [2] was > 6.00.

In the case of `COc1ccccc1-c1cc(NS(=O)(=O)c2ccccc2)nn1-c1c(C)cc(C)cc1C` [Compound 60, N-[5-(2-methoxyphenyl)-1-(2,4,6-trimethylphenyl)pyrazol-3-yl]benzenesulfonamide], the Emax under setting [1] is > 60%. Further, the pEC50 under setting [2] is 5.52 to 6.00. With `Cc1ccc(-c2cc(NS(=O)(=O)c3ccccc3)nn2-c2c(C)cc(C)cc2C)cc1` [Compound 61, N-[5-(p-tolyl)-1-(2,4,6-trimethylphenyl)pyrazol-3-yl]benzenesulfonamide], the Emax under setting [1] is 30 to 60%. The pEC50 under setting [2] is > 6.00. On the same counts, the results for `Cc1cc(C)c(-n2nc(NS(=O)(=O)c3ccccc3)cc2-c2ccccc2C)c(C)c1` [Compound 62] are > 60% and > 6.00. In the same order, the values of `Cc1cc(C)c(-n2nc(NS(=O)(=O)c3ccccc3)cc2C2=CCCCC2)c(C)c1` [Compound 63, N-[5-(cyclohexen-1-yl)-1-(2,4,6-trimethylphenyl)pyrazol-3-yl]benzenesulfonamide] are > 60% and 5.52 to 6.00.

Values taken from patent publication US20230373939A1 (VERTEX PHARMACEUTICALS INCORPORATED, priority 2020, published 2023).
